A melting point compilation (Tetko et al.; mined from patent text by program, amines drawn as free bases though some values may be those of a salt)

SMILES	melting point
c1ccn(Nc2ccc(N3CCOCC3)nn2)c1	228 °C
N#Cc1cnn2c1N(C(=O)CN1CCN(C(=O)Nc3ccc(Cl)c(C(F)(F)F)c3)CC1)CC=C2c1cccc(C(F)(F)F)c1	214 to 216 °C
CN1C(=O)C(NC(=O)Nc2ccccc2)C(=O)N(CC23CC4CC(CC(C4)C2)C3)c2ccccc21 (single isomer, unassigned; (-))	173 to 178 °C
Cc1ccc(S(=O)(=O)OCC2Cc3cc(Cl)cc(C(C)(C)C)c3O2)cc1 (centres undefined)	74 to 77 °C
COc1cc2c(cc1OC)CN(CCCc1ccc(NC(=O)c3cccc4c(=O)c5cccc(F)c5[nH]c34)cc1)CC2	166 °C
N#Cc1ccc(N2CCN(c3ccnc(Cl)n3)CC2)cc1	216 to 218 °C
O=c1[nH]c2ncc(-c3ccc(O)nc3)nc2n1CC1CCCCC1	> 400 °C
O=C1CCc2cc(Br)c(NC(=O)C(F)(F)F)cc21	220 °C
CC(=O)N(c1ncc(C(F)(F)F)cc1Cl)c1c([N+](=O)[O-])cc(C(F)(F)F)c(Cl)c1[N+](=O)[O-]	75 to 77 °C
Cc1nc2ccccc2c(=O)o1	79 to 81 °C
CC1=C(CC(NC(=O)c2ccc(Cl)cc2)NC(=NC#N)Nc2cccnc2)C(C)(C)CCC1 (centres undefined)	95 to 96 °C
COC(=O)Nc1nc(-c2ccccc2)c(-c2nc3ccccc3c(=O)n2-c2cccc(Cl)c2)s1	230 to 231 °C
Cc1ccc(C(=O)NCCc2ccccc2Cl)cc1	106 to 108 °C
NS(=O)(=O)c1cc2cnc(CO)cc2o1	222 to 223 °C
COc1cc(C=O)ccc1OCCCl	60 to 61 °C
CC(CC(F)(F)F)C(N)=O (centres undefined)	90.5 to 91.5 °C
Cc1ccc(-c2cc3cc(C=O)ccc3o2)cc1	162 to 164 °C
CCCS(=O)(=O)Nc1c(C)c(C)c2c(c1C)C(c1ccc(C(C)C)cc1)CO2 (centres undefined)	133 to 134 °C
CC(=O)c1c(F)ccc(NC2OC(=O)CC(=O)O2)c1F	82 to 84 °C
CC(C)c1cccc(C(C)C)c1NC(=O)CN1CCN(CCCSc2nc3ccccc3o2)CC1	123 to 125 °C
O=C(O)COc1cccc2c1CCCC2CCOC(=O)N(c1ccccc1)c1ccccc1 (centres undefined)	145 °C

SMILES	melting point
O=c1oc2c(c(OCCN3CCOCC3)c1-c1ccccc1)CCCC2	115 °C
COc1ccc(CCNC(=O)/C=C/c2cccs2)cc1S(N)(=O)=O	218 to 221 °C
CN1CCSC1=NC(=Nc1ccccc1)N1CCCCC1	122 to 124 °C
CC(c1ccc(Br)cc1)N(O)C(=O)NCCO (centres undefined)	117 to 119 °C
CN1CCC2(CC1)c1ccccc1Oc1c(O)cccc12	171 to 173 °C
CC(C)(C)OC(=O)NS(N)(=O)=O	130 to 131 °C
O=c1[nH]nc2n1-c1ccc(Cl)nc1C(c1ccccc1)=[N+]([O-])C2	268 to 270 °C
CN(CCOc1ccc(CC(Oc2ccc(Cl)cc2)C(=O)O)cc1)c1nc2ccccc2o1 (centres undefined)	164 to 165 °C
O=C(O)C(O)C(Sc1ccc(O)cc1)c1ccccc1CCCCCCCCc1ccccc1 (centres undefined)	155 to 157 °C
COC1(c2cc(F)cc(Oc3nc(-c4ccccc4)c(-c4ccc(S(N)(=O)=O)cc4)o3)c2)CCOCC1	159 to 161 °C
Cc1cccc(Cl)c1NC(=O)Nc1ccc(CC(=O)NC(CC(C)C)c2ncc(CCC(=O)O)s2)cc1 (centres undefined)	160 to 162 °C
Cc1nc2c(OCc3ccccc3)cccn2c1CC#N	163 to 166 °C
CO[C@@H]1C[C@H](C(=O)Nc2ccc(N3CCOCC3=O)cc2)N(C(=O)Nc2ccc(Cl)cc2)C1	133 °C
CCCCCCCNC(=O)CCCCCCCSc1nc(-c2ccccc2)c(-c2ccccc2)[nH]1	119 to 120 °C
NS(=O)(=O)c1cc(Cc2ccccc2)c(O)c2ccccc12	167 to 168 °C
CCOC(=O)N1CCN(c2nc(C)nc3c2OCC(=O)N3CC(O)CO)CC1 (centres undefined)	146 to 148 °C
CN(C)c1nc2sc3c(NCCCN4CCCC4=O)ncnc3c2c2c1CC(C)(C)C2	184 to 186 °C
O=C1NC(N2CCCCC2)=N/C1=C\c1c[nH]c2ncc(Cl)cc12	315 to 320 °C
Cc1ccc(-c2coc(C=CC(=O)NC3CCC(CN(C)C4CCOCC4)CC3)c2)cc1 (centres undefined)	165 to 167 °C
CN1C(=O)CC[C@]2(C)c3ccc(-c4ccc5ncsc5c4)cc3CC[C@@H]12	183 to 187 °C
COc1ccc(-c2ccc(OC)nn2)c(OCC(O)CNC(C)(C)C)c1 (centres undefined)	114 to 116 °C

SMILES	melting point
Oc1ccc(NC2CCc3cc(O)ccc3C2)cc1 (centres undefined)	193 to 195 °C
CCCCCCCCCCCCCCCCCCNC(=O)OCC(CNS(=O)(=O)CCCCl)NC(=O)NC (centres undefined)	87 to 90 °C
CN(CCNC(=O)NCCCOc1cccc(CN2CCCCC2)c1)CCC(c1ccc(F)cc1)c1ccccn1 (centres undefined)	111 to 115 °C
CCCOc1ccc(-c2csc(-c3ccccc3)c2CC(=O)N=C(N)N)cc1	131 to 132 °C
CCCN(c1ccncc1Cl)n1cc(C)c2ccccc21	68 to 70 °C
C=CCCC(Oc1ccc(C(=O)Cl)cc1)C1CCCCC1 (centres undefined)	22 to 25 °C
O=c1cc(-c2cncnc2)oc2c(O)c(O)ccc12	> 300 °C
Cc1cc(-n2cc(-c3ccc(F)cc3)nc2C)cc2ccc(=O)[nH]c12	289 to 291 °C
O=C1CC2(C(=O)N1)C(=O)N1c3ccccc3Sc3cccc2c31 (centres undefined)	> 300 °C
O=C(O)Cc1c(C(=O)c2ncc[nH]2)[nH]c2cc(Cl)ccc12	252 to 253 °C
O=C(C#Cc1ccc(C(F)(F)F)cc1Cl)Nc1ccc(OCCn2cnnc2)cc1	223 to 227 °C
CCCNC(=O)NNC=NC(=O)c1nc(Cl)c(N)nc1N	220 to 221 °C
CSc1ccc([N+](=O)[O-])c2nonc12	118 to 120 °C
Brc1ccc2c(c1)sc1cc(Br)ccc12	171 to 173 °C
N#CC1=Nc2cc(Cl)ccc2Oc2ccccc21	161 to 168 °C
CSc1nc2cc(Cl)ccc2n1C1CCN(CCCn2c(=O)[nH]c3ccccc32)CC1	196 °C
CN1C(=O)c2cc(N/C(=C3\C(=O)Nc4ccc([N+](=O)[O-])cc43)c3ccccc3)ccc2C(C)(C)C1=O	169 to 171 °C
COc1cc(F)ccc1N1CCN(CCCn2c(=O)[nH]c3c(c2=O)CCCC3)CC1	230 to 232 °C
O=C(Nc1ccccc1Oc1ccccc1-c1nnn[nH]1)c1ccc(OCc2ccc3ccccc3n2)cc1	224 to 226 °C
COc1cc(OC)nc(NC(=O)NS(=O)(=O)c2ccccc2CN2CN=CN2)n1	219 to 220 °C
O=C(CC1COC1)N[C@H]1CC[C@H](CCN2CCN(c3cccc4c3OCO4)CC2)CC1	190 °C

Results, then the compound that gave them:

melting point	SMILES
52 to 54 °C	CCOC(C#CC(=O)c1cc(OC)c(OC)c(OC)c1)OCC
65 to 85 °C	COc1cc2c(cc1Nc1ncc(Cl)c(Nc3ccccc3OC)n1)CCN(CC(=O)N(C)C)CC2
186 to 187 °C	CCCCc1nn(-c2ccccc2C(F)(F)F)c(=O)n1Cc1ccc(-c2ccccc2S(=O)(=O)Nc2ccc([N+](=O)[O-])cc2)cc1
158 to 159 °C	C=CC[C@](N)(Cc1ccccc1)C(=O)O
186 to 187 °C	CSc1ncc2c(=O)[nH]c(-c3ccccc3OCC3CC3)nc2n1
320 °C	CCCCC(C=C1c2cc3c(cc2-c2sc(-c4cc5sccc5s4)cc21)C(=CC(CC)CCCC)c1cc(-c2cc4sccc4s2)sc1-3)CC (centres undefined)
> 250 °C	Nc1ccc(-c2ccc(-c3nc(N)nc(N)n3)cc2)cc1
158 to 161 °C	COc1cc(OC)nc(Nc2ccc(C)cc2[N+](=O)[O-])n1
133 to 137 °C	O=C(O)C(Cc1ccc(OCc2ccccc2)cc1)c1ccccc1 (centres undefined)
52 to 56 °C	CN(C)CCCN1C(=O)c2cscc2N(C)c2ccccc21
61 to 63 °C	CCCNC(=O)C1(CCCCN2CCC(N3Cc4ccccc4C3=O)CC2)CCc2ccccc21 (centres undefined)
233 °C	Cc1cnc(NC(=O)C2=C(O)c3ccc(F)cc3S(=O)(=O)N2C)s1
129 to 130 °C	CCOC(=O)c1ccc(O)c(-n2cc3c(c2-c2ccccc2)c(=O)n(C)c(=O)n3C)c1
154 to 156 °C	COc1cc2c(c(Cl)c1Cl)C(=O)CC2
135 to 137 °C	C=CCC1(O)CCC2C3CCC4=CC(=O)CCC4C3CCC21CCC (centres undefined)
222 °C	CN(C)c1nc(=O)[nH]n1C
61 °C	Cc1cccc2c1Cc1ccccc1OC(C(=O)O)O2 (centres undefined)
186 to 188 °C	CCc1nccc2[nH]c(=O)ccc12

melting point	SMILES
140 to 141 °C	O=S(=O)(c1c(F)c(F)c(F)c(F)c1F)N1CCCC(c2ccc(F)cc2)=N1
143 to 146 °C	Cc1cccc2cc(C(=O)N(C)C)c(C=CNc3ccccc3)nc12
54 to 74 °C	CCOC(=O)c1c(NC(C)=O)sc2c1C=CC=CC=CC=CC=C2
170 to 171 °C	Cc1ccc2c(c1)sc1ncc(C=O)n12
180 to 182 °C	Cc1cc(C)cc(-c2cc3cnc(N)nc3nc2NC(=O)NC(C)(C)C)c1
170 to 172 °C	CN(C)n1cc(C(=O)NCc2ccc(Cl)cc2)c(=O)c2ccccc21
140 to 142 °C	CCOC(=O)c1c(-c2ccccc2Cl)c2cc(C(C)C)ccc2n(C)c1=O
186 °C	CC(=O)Nc1c(C)c(C)c2c(c1N(C)C)CC(C)(C)O2
141 to 144 °C	COCCNc1cc(Cl)nc(-c2ccc(C)cc2)n1
202 to 204 °C	Clc1ccc(-c2ccc(Cl)nn2)cc1
74 to 76 °C	C=CCOc1ccc2oc(C(=O)c3ccc(OC)cc3)c(C)c2c1
104 to 106 °C	N#Cc1ccc(Cc2ccc(OCC3CCCCC3)cc2)cc1
175 to 177 °C	O=[N+]([O-])c1ccc2nc(N3CCNCC3)cc(Cl)c2c1
103 to 105 °C	CCOP(=O)(CCN1CCCCNc2c1c(=O)c2=O)OCC
< 45 °C	O=C(O)Cc1ccc(Cn2nc(-c3ccccc3)c(Cc3cc4c(cc3Cl)OCO4)c2C(=O)O)cc1
93 to 95 °C	CCCCc1oc2cc(Br)ccc2c1CC1(c2ccc(OC)cc2)OCN=C1Br (centres undefined)
208 °C	CCOC(=O)c1cn(CCCl)c2cc(N3CCN(C)CC3)c(F)cc2c1=O
112 to 115 °C	COc1ccc2c(c1)CCC1CCN(C)C(=O)C(CC3(C)OCCO3)=C21 (centres undefined)
